According to patent US20120245137A1 (Zalicus Pharmaceuticals Ltd., priority 2009, published 2012):
Read-outs that look alike come from different tables or passages of the source.

Columns and labels:
Type in all cases: cell-based
T-type calcium channel = T-type calcium channel (Homo sapiens, UniProt O95180); experiment: T-type channel blocking, FLIPR data (Table 6)
From the text: Another method, high-throughput spectrophotometric assay, utilizes loading of the cell lines with a fluorescent dye sensitive to intracellular calcium concentration and subsequent examination of the effects of compounds on the ability of depolarization by potassium chloride or other means to alter intracellular calcium levels.

Human Cav 2.2 channels = Human Cav 2.2 channels (Homo sapiens, UniProt Q00975); experiment: Fluorescent assay for CaV2.2 channels using potassium depolarization (VIPR/FLIPR); conditions: FLIPR data
From the text: Human Cav 2.2 channels were stably expressed in HEK293 cells along with alpha2-delta and beta subunits of voltage-gated calcium channels. An inwardly rectifying potassium channel (Kir2.3) was also expressed in these cells to allow more precise control of the cell membrane potential by extracellular potassium concentration. At low bath potassium concentration, the membrane potential is relatively negative, and is depolarized as the bath potassium concentration is raised. In this way, the bath potassium concentration can be used to regulate the voltage-dependent conformations of the channels. […] After the incubation period, Cav2.2 channel opening is triggered by addition of higher concentration of potassium (70 mM final concentration) to further depolarize the cell. The degree of state-dependent block can be estimated from the inhibitory potency of compounds after incubation in different potassium concentrations.
Calcium influx through Cav 2.2 channels is determined using a calcium sensitive fluorescent dye in combination with a fluorescent plate reader. Fluorescent changes were measured with either a VIPR (Aurora Instruments) or FLIPR (Molecular Devices) plate reader.
1. Seed cells in Poly-D-Lysine Coated 96 or 384-well plate and keep in a 3rC-IO % C02 incubator overnight.
2. Remove media, wash cells with 0.2 mL (96-well plate) or 0.05 mL (384-well plate) Dulbecco's Phosphate Buffered Saline (D-PBS) with calcium & magnesium (Invitrogen; 14040).
3. Add 0.1 mL (96-well plate) or 0.05 mL (384-well plate) of 4˜M fluor-4 (Molecular Probes; F-14202) and 0.02% Pluronic acid (Molecular Probes; P-3(00) prepared in D-PBS with calcium & magnesium (Invitrogen; 14040) supplemented with 10 mM Glucose & 10 mM HepeslNaOH; pH 7.4.
4. Incubate in the dark at 25° C. for 60-70 min.
5. Remove dye, wash cells with 0.1 mL (96-well plate) or 0.06 mL (384-well plate) of 4, 12, 25, or 30 mM Potassium Pre-polarization Buffer (PPB).
6. Add 0.1 mL (96-well plate) or 0.03 mL (384-well plate) of 4, 12, 25, 30 mM PPB with or without test compound.
7. Incubate in the dark at 25° C. for 30 min
8. Read cell plate on VIPR instrument, Excitation=480 nm, Emission=535 nm.
9. With VIPR continuously reading, add 0.1 mL (96-well plate) or 0.03 mL (384-well plate) of Depolarization Buffer (DB), which is 2× the final assay concentration, to the cell plate.

CAv1.2 = CAv1.2 (Homo sapiens, UniProt Q13936); experiment: FLIPR data, CAv1.2 channel blocking (Table 6)
[1] = CAv3.2, inactivated state, read-out: CAv3.2 IC50 Inact.
[2] = closed state, read-out: CAv2.2 IC50 Closed
[3] = inactivated state, read-out: CAv2.2 IC50 Inact.
[4] = closed state, read-out: CAv1.2 IC50 Closed
[5] = inactivated state, read-out: CAv1.2 IC50 Inact.
[6] = CAv3.2, closed state, read-out: CAv3.2 IC50 Closed
[7] = CAv3.2, ratio closed/inactivated IC50

Sequence of Human Cav 2.2 channels (Q00975 whole entry): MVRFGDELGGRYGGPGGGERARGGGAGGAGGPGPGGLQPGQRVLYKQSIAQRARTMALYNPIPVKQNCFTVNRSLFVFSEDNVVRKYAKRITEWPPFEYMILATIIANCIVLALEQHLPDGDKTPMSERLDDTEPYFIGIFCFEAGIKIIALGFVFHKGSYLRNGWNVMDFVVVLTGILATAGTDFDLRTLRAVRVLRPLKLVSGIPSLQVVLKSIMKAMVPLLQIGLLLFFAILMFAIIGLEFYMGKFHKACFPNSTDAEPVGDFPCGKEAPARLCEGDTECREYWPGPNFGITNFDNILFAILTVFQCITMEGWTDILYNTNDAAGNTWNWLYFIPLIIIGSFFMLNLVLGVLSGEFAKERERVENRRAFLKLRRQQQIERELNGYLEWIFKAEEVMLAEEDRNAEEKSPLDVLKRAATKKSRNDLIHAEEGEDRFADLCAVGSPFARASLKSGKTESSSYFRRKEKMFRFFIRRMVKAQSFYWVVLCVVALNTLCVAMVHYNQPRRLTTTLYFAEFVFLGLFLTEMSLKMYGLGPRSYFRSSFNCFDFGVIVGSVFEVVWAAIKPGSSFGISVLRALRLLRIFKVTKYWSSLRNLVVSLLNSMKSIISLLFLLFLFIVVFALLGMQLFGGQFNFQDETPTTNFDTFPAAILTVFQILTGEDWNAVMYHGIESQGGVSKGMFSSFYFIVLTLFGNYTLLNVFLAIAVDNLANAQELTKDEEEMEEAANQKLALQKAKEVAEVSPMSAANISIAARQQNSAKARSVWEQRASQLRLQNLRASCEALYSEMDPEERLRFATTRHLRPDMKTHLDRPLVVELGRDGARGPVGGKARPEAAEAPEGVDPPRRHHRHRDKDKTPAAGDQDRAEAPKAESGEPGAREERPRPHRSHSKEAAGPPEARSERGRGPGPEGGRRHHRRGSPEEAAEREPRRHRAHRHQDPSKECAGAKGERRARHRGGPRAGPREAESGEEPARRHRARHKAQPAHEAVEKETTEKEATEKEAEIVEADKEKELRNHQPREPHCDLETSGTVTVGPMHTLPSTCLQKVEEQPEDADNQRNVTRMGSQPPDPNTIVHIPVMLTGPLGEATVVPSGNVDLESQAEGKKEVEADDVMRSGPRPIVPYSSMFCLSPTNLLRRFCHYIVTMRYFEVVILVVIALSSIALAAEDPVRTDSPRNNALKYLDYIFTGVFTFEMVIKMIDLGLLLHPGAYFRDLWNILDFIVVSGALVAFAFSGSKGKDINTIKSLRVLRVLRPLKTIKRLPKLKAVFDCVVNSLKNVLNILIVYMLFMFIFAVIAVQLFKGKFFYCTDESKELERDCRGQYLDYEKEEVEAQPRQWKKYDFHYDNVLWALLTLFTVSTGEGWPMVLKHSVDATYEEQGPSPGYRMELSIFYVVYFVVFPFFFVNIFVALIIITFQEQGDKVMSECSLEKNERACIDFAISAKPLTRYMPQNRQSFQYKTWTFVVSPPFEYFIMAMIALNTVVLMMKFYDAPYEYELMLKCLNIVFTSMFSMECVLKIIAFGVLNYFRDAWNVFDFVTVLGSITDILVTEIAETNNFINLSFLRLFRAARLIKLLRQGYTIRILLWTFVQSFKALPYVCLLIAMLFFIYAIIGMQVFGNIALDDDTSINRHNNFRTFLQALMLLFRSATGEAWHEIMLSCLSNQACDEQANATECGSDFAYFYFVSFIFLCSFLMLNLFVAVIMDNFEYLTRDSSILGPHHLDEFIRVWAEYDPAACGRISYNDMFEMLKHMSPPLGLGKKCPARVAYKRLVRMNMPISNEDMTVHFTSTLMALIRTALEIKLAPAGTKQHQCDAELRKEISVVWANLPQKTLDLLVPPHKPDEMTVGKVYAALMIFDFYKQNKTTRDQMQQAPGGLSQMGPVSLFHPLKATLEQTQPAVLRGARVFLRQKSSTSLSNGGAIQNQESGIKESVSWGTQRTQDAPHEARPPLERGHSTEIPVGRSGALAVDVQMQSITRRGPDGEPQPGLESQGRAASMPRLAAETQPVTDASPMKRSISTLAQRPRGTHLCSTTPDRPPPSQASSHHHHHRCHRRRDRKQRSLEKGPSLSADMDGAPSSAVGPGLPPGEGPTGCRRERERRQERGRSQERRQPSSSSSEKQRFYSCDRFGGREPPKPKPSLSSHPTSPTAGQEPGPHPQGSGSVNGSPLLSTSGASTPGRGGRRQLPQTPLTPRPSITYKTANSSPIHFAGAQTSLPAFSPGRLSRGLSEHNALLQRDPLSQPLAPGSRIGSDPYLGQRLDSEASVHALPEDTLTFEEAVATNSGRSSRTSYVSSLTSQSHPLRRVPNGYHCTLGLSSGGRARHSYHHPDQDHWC
Sequence of Human Cav 2.2 channels (P54289 25-1103 partner): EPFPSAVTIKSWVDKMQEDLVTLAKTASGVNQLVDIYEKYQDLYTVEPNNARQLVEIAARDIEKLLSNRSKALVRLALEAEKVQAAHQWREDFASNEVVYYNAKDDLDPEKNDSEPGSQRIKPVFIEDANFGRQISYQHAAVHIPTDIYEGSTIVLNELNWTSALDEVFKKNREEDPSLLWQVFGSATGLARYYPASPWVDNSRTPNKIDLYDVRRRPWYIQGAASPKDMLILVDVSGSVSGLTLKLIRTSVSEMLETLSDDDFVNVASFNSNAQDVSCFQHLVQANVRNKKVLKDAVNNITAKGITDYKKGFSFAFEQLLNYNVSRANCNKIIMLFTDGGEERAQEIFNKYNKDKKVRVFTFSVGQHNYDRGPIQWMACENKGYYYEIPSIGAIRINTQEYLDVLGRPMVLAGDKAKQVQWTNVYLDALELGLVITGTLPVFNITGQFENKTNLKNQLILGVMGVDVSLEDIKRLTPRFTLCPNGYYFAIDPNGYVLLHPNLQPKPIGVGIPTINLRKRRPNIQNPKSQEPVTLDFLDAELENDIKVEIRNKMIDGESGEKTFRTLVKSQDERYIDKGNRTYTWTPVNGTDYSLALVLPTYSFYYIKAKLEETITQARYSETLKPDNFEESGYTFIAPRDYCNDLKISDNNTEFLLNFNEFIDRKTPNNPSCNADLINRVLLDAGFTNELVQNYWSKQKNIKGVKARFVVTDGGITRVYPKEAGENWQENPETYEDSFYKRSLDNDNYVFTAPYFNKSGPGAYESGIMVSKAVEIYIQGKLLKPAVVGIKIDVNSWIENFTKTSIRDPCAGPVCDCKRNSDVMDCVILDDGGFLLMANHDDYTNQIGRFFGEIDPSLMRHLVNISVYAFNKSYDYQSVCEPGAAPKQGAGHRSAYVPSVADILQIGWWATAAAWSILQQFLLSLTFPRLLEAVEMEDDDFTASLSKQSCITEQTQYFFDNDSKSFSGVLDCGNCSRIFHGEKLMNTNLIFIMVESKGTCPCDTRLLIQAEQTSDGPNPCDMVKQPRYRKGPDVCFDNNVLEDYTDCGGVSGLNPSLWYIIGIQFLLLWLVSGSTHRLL
Sequence of Human Cav 2.2 channels (P54284 whole entry partner): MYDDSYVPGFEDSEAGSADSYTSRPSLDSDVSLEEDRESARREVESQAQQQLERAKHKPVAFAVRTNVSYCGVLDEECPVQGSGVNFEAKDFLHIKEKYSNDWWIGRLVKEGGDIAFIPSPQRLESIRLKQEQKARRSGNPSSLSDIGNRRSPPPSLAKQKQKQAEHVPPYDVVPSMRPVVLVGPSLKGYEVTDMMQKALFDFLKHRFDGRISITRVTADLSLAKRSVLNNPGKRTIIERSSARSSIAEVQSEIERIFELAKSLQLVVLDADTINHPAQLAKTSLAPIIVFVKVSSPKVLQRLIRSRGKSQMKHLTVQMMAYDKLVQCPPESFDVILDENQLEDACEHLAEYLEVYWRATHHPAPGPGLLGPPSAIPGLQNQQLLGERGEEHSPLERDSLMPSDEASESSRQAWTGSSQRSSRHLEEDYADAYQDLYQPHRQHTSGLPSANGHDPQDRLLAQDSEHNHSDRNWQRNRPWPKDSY

Row | IC50 (T-type calcium channel; [1]) | IC50 (Human Cav 2.2 channels; [2]) | IC50 (Human Cav 2.2 channels; [3]) | CAv2.2 IC50 Ratio closed/inact. (Human Cav 2.2 channels; ratio closed/inactivated IC50) | IC50 (T-type calcium channel; [6]) | CAv3.2 IC50 Ratio closed/inact. (T-type calcium channel; [7]) | CAv2.2 IC50 Ratio closed/inact. (Human Cav 2.2 channels; ratio closed/inact.) | CAv3.2 IC50 Ratio closed/inact. (T-type calcium channel; CAv3.2, ratio closed/inact.) | SMILES | IC50 (CAv1.2; [4]) | IC50 (CAv1.2; [5]) | CAv1.2 IC50 Ratio closed/inact. (CAv1.2; ratio closed/inactivated IC50)
1 | 10 µM | – | – | – | – | – | – | – | N[C@H]1CCCC[C@@H]1C(=O)NC[C@H]1C[C@H](S(=O)(=O)c2cccc(OC(F)(F)F)c2)C1 [Compound 713] | – | – | –
2 | 10 µM | 10 µM | 6.02 µM | 1.7 | – | – | – | – | N[C@H]1CCCC[C@@H]1C(=O)NC[C@H]1C[C@H](S(=O)(=O)c2cc(F)cc(C(F)(F)F)c2)C1 [Compound 712] | ≥ 10 µM | ≥ 10 µM | –
3 | 10 µM | 10 µM | 1.31 µM | 7.6 | ≥ 10 µM | 1 | – | – | CC(C)([C@H]1C[C@H](NC(=O)c2ccc(S(C)(=O)=O)cc2Cl)C1)S(=O)(=O)c1cccc(C(F)(F)F)c1 [Compound 680] | – | – | –
4 | 10 µM | 10 µM | 2.21 µM | 4.5 | – | – | – | – | CS(=O)(=O)c1cc(C(F)(F)F)cnc1C(=O)NC[C@H]1C[C@H](S(=O)(=O)c2cc(F)cc(C(F)(F)F)c2)C1 [Compound 701] | – | ≥ 10 µM | –
5 | 10 µM | 10 µM | 1.08 µM | 9.3 | ≥ 10 µM | 1 | – | – | CC(C)([C@H]1C[C@@H](NC(=O)c2ccc(C(F)(F)F)cc2S(C)(=O)=O)C1)S(=O)(=O)c1cc(F)cc(C(F)(F)F)c1 [Compound 585] | – | ≥ 10 µM | –
6 | 5.83 µM | 3.24 µM | 0.43 µM | 7.5 | 8.12 µM | 1.4 | – | – | O=C(NC[C@H]1C[C@H](S(=O)(=O)c2cccc(C(F)(F)F)c2)C1)c1ccc(Cl)cn1 [Compound 573] | ≥ 10 µM | ≥ 10 µM | –
7 | 10 µM | 10 µM | 0.48 µM | 20.8 | ≥ 10 µM | 1 | – | – | CC(C)([C@H]1C[C@H](NC(=O)c2ccc(Cl)cc2S(C)(=O)=O)C1)S(=O)(=O)c1cccc(C(F)(F)F)c1 [Compound 679] | – | – | –
8 | – | 10 µM | 1.29 µM | 7.8 | – | – | – | – | O=C(NC[C@H]1C[C@H](S(=O)(=O)c2cccc(C(F)(F)F)c2)C1)c1ncc(C(F)(F)F)cn1 [Compound 574] | – | – | –
9 | 10 µM | 2.89 µM | 1 µM | 2.9 | ≥ 10 µM | 1 | – | – | CC(C)(C[C@H]1C[C@@H](NC(=O)CC2(N)CCCCC2)C1)S(=O)(=O)c1cccc(C(F)(F)F)c1 [Compound 739] | 8.86 µM | ≥ 10 µM | 0.9
10 | 10 µM | 3.36 µM | 1.05 µM | – | – | – | 3.2 | – | CC(C)(C[C@H]1C[C@H](NC(=O)[C@H]2CCCC[C@H]2N)C1)S(=O)(=O)c1cccc(C(F)(F)F)c1 [Compound 742] | – | – | –
11 | 9.98 µM | 8.63 µM | 0.49 µM | 17.6 | ≥ 10 µM | 1 | – | – | CC(C)(C[C@H]1C[C@H](NC(=O)c2ncc(C(F)(F)F)cc2S(C)(=O)=O)C1)S(=O)(=O)c1cccc(C(F)(F)F)c1 [Compound 717] | ≥ 10 µM | ≥ 10 µM | –
12 | 7.51 µM | 10 µM | 1.38 µM | 7.2 | ≥ 10 µM | 1.3 | – | – | CS(=O)(=O)c1cc(Cl)ccc1C(=O)NC[C@H]1C[C@H](S(=O)(=O)c2cc(F)cc(C(F)(F)F)c2)C1 [Compound 715] | ≥ 10 µM | ≥ 10 µM | –
13 | 10 µM | 5.65 µM | 1.25 µM | 4.5 | – | – | – | – | CNC1(CC(=O)N[C@H]2C[C@H](C(C)(C)S(=O)(=O)c3cccc(OC(F)(F)F)c3)C2)CCCCC1 [Compound 662] | ≥ 10 µM | ≥ 10 µM | –
14 | 10 µM | 8.87 µM | 1.19 µM | 7.5 | – | – | – | – | CC(C)([C@H]1C[C@@H](NC(=O)CC2(N)CCCCC2)C1)S(=O)(=O)c1cccc(C(F)(F)F)c1 [Compound 652] | – | – | –
15 | 3.27 µM | 5.86 µM | 0.95 µM | 6.2 | ≥ 10 µM | 3.1 | – | – | CC(C)([C@H]1C[C@@H](NC(=O)c2ccnc(C(F)(F)F)n2)C1)S(=O)(=O)c1cc(F)cc(C(F)(F)F)c1 [Compound 588] | ≥ 10 µM | ≥ 10 µM | –
16 | 10 µM | 9.71 µM | 1.93 µM | 5 | – | – | – | – | CNC1(CC(=O)N[C@H]2C[C@H](C(C)(C)S(=O)(=O)c3cc(F)cc(C(F)(F)F)c3)C2)CCCCC1 [Compound 659] | ≥ 10 µM | ≥ 10 µM | –
17 | 10 µM | 10 µM | ≥ 10 µM | – | – | – | 1 | – | N[C@@H]1CCCC[C@H]1C(=O)NC[C@H]1C[C@H](S(=O)(=O)c2cccc(Cl)c2)C1 [Compound 777] | – | – | –
18 | 10 µM | – | ≥ 10 µM | – | – | – | – | – | N[C@H]1CCCC[C@H]1C(=O)NC[C@H]1C[C@H](S(=O)(=O)c2cccc(Cl)c2)C1 [Compound 778] | – | – | –
19 | 10 µM | – | ≥ 10 µM | – | ≥ 10 µM | – | – | 1 | O=C(c1ccc(C(F)(F)F)cn1)N1CC(CS(=O)(=O)c2cc(F)cc(C(F)(F)F)c2)C1 [Compound 746] | – | – | –
20 | 10 µM | 10 µM | – | – | – | – | – | – | N[C@@H]1CCCC[C@@H]1C(=O)NC[C@H]1C[C@H](S(=O)(=O)c2cc(F)cc(C(F)(F)F)c2)C1 (single isomer, unassigned) [Compound 707] | – | – | –
21 | 10 µM | – | 9.88 µM | – | ≥ 10 µM | – | 1 | 1 | O=C(NC[C@H]1C[C@H](S(=O)(=O)c2cccc(Cl)c2)C1)c1cnc(C(F)(F)F)nc1 [Compound 773] | – | – | –
22 | – | 9.32 µM | 2.15 µM | 4.3 | – | – | – | – | CNC1(CC(=O)N[C@H]2C[C@@H](C(C)(C)S(=O)(=O)c3cccc(C(F)(F)F)c3)C2)CCCCC1 [Compound 657] | ≥ 10 µM | – | –
23 | – | 10 µM | 8.66 µM | 1.2 | – | – | – | – | Cc1nc(S(=O)(=O)N[C@H]2C[C@H](C(C)(C)S(=O)(=O)c3cccc(C(F)(F)F)c3)C2)cn1C [Compound 670] | – | – | –
24 | 10 µM | 10 µM | 9.37 µM | – | – | – | 1.1 | – | NC1(CC(=O)NC[C@H]2C[C@H](S(=O)(=O)c3cccc(Cl)c3)C2)CCCCC1 [Compound 776] | – | – | –
25 | – | – | 6.9 µM | 1.4 | – | – | – | – | Cc1nc(S(=O)(=O)N[C@H]2C[C@@H](C(C)(C)S(=O)(=O)c3cccc(C(F)(F)F)c3)C2)cn1C [Compound 631] | – | – | –
26 | 10 µM | 3.55 µM | 1.25 µM | 2.8 | – | – | – | – | N[C@@H]1CCCC[C@@H]1C(=O)NC[C@H]1C[C@H](S(=O)(=O)c2cccc(OC(F)(F)F)c2)C1 (single isomer, unassigned) [Compound 700] | – | – | –
27 | – | 8.95 µM | 0.79 µM | 11.3 | – | – | – | – | CC(C)([C@H]1C[C@H](NC(=O)c2ncc(C(F)(F)F)cn2)C1)S(=O)(=O)c1cccc(C(F)(F)F)c1 [Compound 678] | – | – | –
28 | – | 10 µM | 0.64 µM | 15.6 | – | – | – | – | CC(C)([C@H]1C[C@@H](NC(=O)c2ccc(S(C)(=O)=O)cc2Cl)C1)S(=O)(=O)c1cccc(C(F)(F)F)c1 [Compound 577] | ≥ 10 µM | ≥ 10 µM | –
